Consider four molecules from US20220275274A1, “NEUTRAL FLUORESCENT MITOCHONDRIAL MARKER BASED ON NITROGEN-CONTAINING HETEROCYCLE, PREPARATION METHOD AND USE THEREOF” (SOOCHOW UNIVERSITY, priority 2020, published 2022).

Data set [1] can be described thus: ultraviolet absorption and fluorescence emission in chloroform. It is filed as physicochemical. To be noted: 10 μM; for maximum emission wavelength (fluorescence spectrum): excitation wavelength and slit width per dye. The protocol: The ultraviolet absorption and fluorescence emission of the dyes prepared in the examples and comparative examples (at a concentration of 10 μM) in chloroform were tested. The horizontal ordinate is the wavelength, and the vertical ordinate is the absorbance and fluorescence intensity, respectively.
In the ultraviolet-visible absorption spectrum, dye 1a has the maximum absorption at 378 nm; and in the fluorescence spectrum, dye 1a has the highest fluorescence intensity at 452 nm, where the excitation wavelength is 370 nm, and the slit width is 3 nm/1.5 nm. In the ultraviolet-visible absorption spectrum, dye 1b has a maximum absorption wavelength of 382 nm; and in the fluorescence spectrum, dye 1b has a maximum emission wavelength of 485 nm, where the excitation wavelength is 374 nm, and the slit width is 3 nm/1.5 nm. In the ultraviolet-visible absorption spectrum, dye 1c has a maximum absorption wavelength of 385 nm; and in the fluorescence spectrum, dye 1c has a maximum emission wavelength of 454 nm, where the excitation wavelength is 380 nm, and the slit width is 3 nm/1.5 nm. In the ultraviolet-visible absorption spectrum, dye 2a has the maximum absorption at 364 nm; and in the fluorescence spectrum, dye 2a has the highest fluorescence intensity at 480 nm, where the excitation wavelength is 374 nm, and the slit width is 3 nm/1.5 nm. In the ultraviolet-visible absorption spectrum, dye 2b has a maximum absorption wavelength of 360 nm; and in the fluorescence spectrum, dye 2b has a maximum emission wavelength of 458 nm, where the excitation wavelength is 370 nm, and the slit width is 3 nm/1.5 nm. In the ultraviolet-visible absorption spectrum, dye 2c has a maximum absorption wavelength of 356 nm; and in the fluorescence spectrum, dye 2c has a maximum emission wavelength of 441 nm, where the excitation wavelength is 360 nm, and the slit width is 3 nm/3 nm. In the ultraviolet-visible absorption spectrum, dye 3a has the maximum absorption at 548 nm; and in the fluorescence spectrum, dye 3a has the highest fluorescence intensity at 606 nm, where the excitation wavelength is 560 nm, and the slit width is 1.5 nm/1.5 nm. In the ultraviolet-visible absorption spectrum, dye 3b has a maximum absorption wavelength of 549 nm; and in the fluorescence spectrum, dye 3b has a maximum emission wavelength of 608 nm, where the excitation wavelength is 540 nm, and the slit width is 1.5 nm/1.5 nm. In the ultraviolet-visible absorption spectrum, dye 3c has a maximum absorption wavelength of 554 nm; and in the fluorescence spectrum, dye 3c has a maximum emission wavelength of 611 nm, where the excitation wavelength is 540 nm, and the slit width is 1.5 nm/1.5 nm. In the ultraviolet-visible absorption spectrum, dye 3d has a maximum absorption wavelength of 556 nm; and in the fluorescence spectrum, dye 3d has a maximum emission wavelength of 619 nm, where the excitation wavelength is 570 nm, and the slit width is 1.5 nm/1.5 nm. In the ultraviolet-visible absorption spectrum, dye 4 has a maximum absorption wavelength of 501 nm; and in the fluorescence spectrum, dye 4 has a maximum emission wavelength of 515 nm, where the excitation wavelength is 495 nm, and the slit width is 1.5 nm/1.5 nm. The above UV absorption and fluorescence emission test methods are conventional methods.

Data set [2] has as its system HeLa cells. As to the kind of experiment: cell imaging, colocalization with green mitochondrial marker Mito Tracker Green FM. The class given is cell-based. Particulars: dye 1 μM, vs Mito Tracker Green FM (100 nm), red and green channel. As for the experimental part: (§1) Dye 3a was formulated into a mother liquor in DMSO (dimethyl sulfoxide), and then added to a conventional cell culture medium to give a concentration of dye 3a in the cell culture medium of 1 μM. L929 cells and HeLa cells were respectively co-cultured for 10 min in an incubator at saturated humidity, 37° C., and 5% CO2 (the experiment was same below). The existing green mitochondrial marker Mito Tracker® Green FM (100 nm) was added, and the cells were co-incubated for another 10 min, washed three times with a PBS buffer, and imaged under a laser confocal microscope. In the red channel, light of 561 nm was used for excitation, and a fluorescence signal in the range of 570-750 nm was collected. In the green channel, light of 488 nm was used for excitation, and a fluorescence signal in the range of 500-550 nm was collected. […] The results are shown in FIG. 20, where (a) and (g) are the bright-field images; (b) and (h) are the cell images with dye 3a; (c) and (i) are the cell images with the green mitochondrial marker; (d) and (j) are overlapped images with red channel and green channel, (e) and (k) show the fluorescence intensity of the ROI line in the overlapped images; and (f) and (1) show colocalization assays, with a colocalization coefficient of 0.91 (L929) and 0.90 (HeLa) respectively.
(§2) The experiment method with dye 3b (1 μM) and dye 3c (1 μM) is the same as that with dye 3a above, except that dye 3a is replaced. […] In FIG. 21, (a) and (g) are the bright-field images; (b) and (h) are the cell images with dye 3b; (c) and (i) are the cell images with the green mitochondrial marker; (d) and (j) are overlapped images with red channel and green channel, (e) and (k) show the fluorescence intensity of the ROI line in the overlapped images; and (f) and (1) show colocalization assays, with a colocalization coefficient of 0.88 (L929) and 0.90 (HeLa) respectively. In FIG. 22, (a) and (g) are the bright-field images; (b) and (h) are the cell images with dye 3c; (c) and (i) are the cell images with the green mitochondrial marker; (d) and (j) are overlapped images with red channel and green channel, (e) and (k) show the fluorescence intensity of the ROI line in the overlapped images; and (f) and (1) show colocalization assays, with a colocalization coefficient of 0.89 (L929) and 0.87 (HeLa) respectively.
(§3) Dye 3d was formulated into a mother liquor in DMSO (dimethyl sulfoxide), and then added to a conventional cell culture medium to give a concentration of dye 3d in the cell culture medium of 1 μM. L929 cells and HeLa cells were respectively co-cultured for 10 min in an incubator at saturated humidity, 37° C., and 5% CO2. Then the green mitochondrial marker Mito Tracker® Green FM (100 nm) and a green lipid droplet marker were added (the synthesis is as described in CHen, Y.; Wei, X. R.; Sun, R.; Xu, Y. J.; Ge, J. F. Org Biomol CHem 2018, 16, 7619.). The cells were co-incubated for another 10 min, washed three times with a PBS buffer, and imaged under a laser confocal microscope. In the red channel, light of 561 nm was used for excitation, and a fluorescence signal in the range of 570-750 nm was collected. In the green channel, light of 488 nm was used for excitation, and a fluorescence signal in the range of 500-550 nm was collected. […] The results are shown in FIG. 23, where (a) and (f) are the bright-field images, (b) and (g) are the cell images with dye 3d, (c) is the cell image with the green lipid droplet marker, (h) is the cell image with the green mitochondrial marker, (d) and (i) are overlapped images with red channel and green channel, and (e) and (j) show the fluorescence intensity of the ROI line in the overlapped images. […]

In data set [3] the test system is L929 cells. Described as above. It is filed as cell-based. Particulars: dye 1 μM; for mitochondria labeling ability (red mitochondrial marker): L929 (normal) and HeLa (cancer) cells, vs Mito Tracker Green FM; for colocalization coefficient: L929 cells, vs Mito Tracker Green FM (100 nm), red and green channel. The protocol: as §1, §2, §3

For `CCN(CC)c1ccc2nc3c4ccc(-c5ccc6[nH]ncc6c5)cc4c(=O)cc-3oc2c1` [dye 3a], in data set [1], the “maximum absorption wavelength (ultraviolet-visible absorption spectrum)” value (shortened to “maximum absorption wavelength”) is on record as 548 nm and the “maximum emission wavelength (fluorescence spectrum)” value (“maximum emission wavelength” below) was 606 nm. In data set [2], this molecule showed a colocalization coefficient of 0.90. Also, in data set [3], the “mitochondria labeling ability (red mitochondrial marker)” value (from here on “mitochondria labeling ability”) is “mitochondria labeling ability in both normal cells and cancer cells”; the colocalization coefficient was 0.91.

Take `CCN(CC)c1ccc2nc3c4ccc(-c5cnc6[nH]ccc6c5)cc4c(=O)cc-3oc2c1` [dye 3b]: in data set [1], the “maximum absorption wavelength” value is reported as 549 nm and the “maximum emission wavelength” value is listed as 608 nm. Moreover, in data set [2], the colocalization coefficient amounted to 0.90. Further, in data set [3], the “mitochondria labeling ability” value was “mitochondria labeling ability in both normal cells and cancer cells”; the colocalization coefficient amounted to 0.88.

For the molecule `CCN(CC)c1ccc2nc3c4ccc(-c5cnc6[nH]ncc6c5)cc4c(=O)cc-3oc2c1` [dye 3c], in data set [1], the “maximum absorption wavelength” value is 554 nm and the “maximum emission wavelength” value is reported as 611 nm. In data set [2], this molecule showed a colocalization coefficient of 0.87. In addition, in data set [3], the “mitochondria labeling ability” value was “mitochondria labeling ability in both normal cells and cancer cells”; the colocalization coefficient is 0.89.

`CCN(CC)c1ccc2nc3c4ccc(-c5ccc6nccnc6c5)cc4c(=O)cc-3oc2c1` [dye 3d]: in data set [1], the “maximum absorption wavelength” value is on record as 556 nm and the “maximum emission wavelength” value stood at 619 nm. For the same molecule, the organelles marked result in data set [3] (L929 and HeLa cells, vs Mito Tracker Green FM and a green lipid droplet marker) is “simultaneously mark two organelles, i.e. mitochondria and lipid droplets”.
